Results from patent publication US8354436B2 (4SC Discovery GmbH, priority 2011, dated 2013).
Read-outs that look alike come from different tables or passages of the source.

What was measured:
Type in all cases: cell-based
Conditions in all cases: 48 hours
[1] = system: PBMC from healthy human donors; test: T cell proliferation assay (PHA-stimulated human PBMC, BrdU ELISA)
Procedure, shortened: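 Healthy-donor PBMC isolated on Ficoll, seeded at 1×10⁵ cells/well in RPMI with 10% dialysed FCS, stimulated with 2 μg/ml PHA in presence of test compound. Proliferation read after 48 hours by BrdU-incorporation ELISA.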

IL-17FF = IL-17FF production by PHA-stimulated human PBMC (human IL-17F ELI-Pair)
Procedure, shortened: (§1)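 Inhibition of PHA-driven (2 μg/ml) cytokine release from human PBMC at 1×10^5 cells/well, 48 h compound exposure. IC50 from semilog titrations.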

IFN-γ = IFN-γ production by PHA-stimulated human PBMC (OptEIA human IFN-g ELISA)
Procedure, shortened: as §1

[2] = PHA-stimulated human PBMC, column D, read-out: IC50 (Tcell proliferation)
[3] = PHA-stimulated human PBMC, column B, read-out: IC50 (IL-17FF)
[4] = PHA-stimulated human PBMC, column C, read-out: IC50 (IFNγ)
[5] = human PBMC, 2 μg/ml PHA, read-out: D: IC50 (Tcell proliferation)
[6] = human PBMC, 2 μg/ml PHA, read-out: B: IC50 (IL-17FF)
[7] = human PBMC, 2 μg/ml PHA, read-out: C: IC50 (IFNγ)

| SMILES | IC50 (IL-17FF; [3]) [µM] | IC50 (IFN-γ; [4]) [µM] | IC50 (IL-17FF; [6]) [µM] | IC50 (IFN-γ; [7]) [µM] | IC50 [1, 2] [µM] | IC50 [1, 5] [µM] |
| --- | --- | --- | --- | --- | --- | --- |
| Cc1nnc(-c2c(-c3c(F)cccc3Cl)noc2-c2cnn(-c3cccc(Cl)c3)c2C(F)(F)F)s1 [Example B-3, 3-(2-chloro-6-fluorophenyl)-5-(1-(3-chlorophenyl)-5-(trifluoromethyl)-1H-pyrazol-4-yl)-4-(5-methyl-1,3,4-thiadiazol-2-yl)isoxazole] | – | – | < 0.01 | < 0.01 | – | < 0.01 |
| COc1csc(-c2c(-c3c(F)cccc3Cl)noc2-c2cnn(-c3cccc(F)c3)c2C(F)(F)F)n1 [Example 10, 3-(2-chloro-6-fluorophenyl)-5-(1-(3-fluorophenyl)-5-(trifluoromethyl)-1H-pyrazol-4-yl)-4-(4-methoxythiazol-2-yl)isoxazole] | – | – | 0.1 to 1 | 0.01 to 0.1 | – | 0.01 to 0.1 |
| Fc1cccc(-n2ncc(-c3onc(-c4c(F)cccc4Cl)c3-c3nnn[nH]3)c2C(F)(F)F)c1 [Example 2, 3-(2-chloro-6-fluorophenyl)-5-(1-(3-fluorophenyl)-5-(trifluoromethyl)-1H-pyrazol-4-yl)-4-(1H-tetrazol-5-yl)isoxazole] | – | – | 1 to 10 | 1 to 10 | – | 1 to 10 |
| Fc1cccc(Cl)c1-c1noc(-c2cnn(-c3cccnc3)c2C(F)(F)F)c1-c1nnco1 [Example B-15, 2-(3-(2-chloro-6-fluorophenyl)-5-(1-(pyridin-3-yl)-5-(trifluoromethyl)-1H-pyrazol-4-yl)isoxazol-4-yl)-1,3,4-oxadiazole] | – | – | 0.1 to 1 | 0.1 to 1 | – | 0.1 to 1 |
| Fc1cccc(Cl)c1-c1noc(-c2cnn(-c3cccnc3)c2C(F)(F)F)c1-c1cnco1 [Example B-32, 3-(2-chloro-6-fluorophenyl)-4-(oxazol-5-yl)-5-(1-(pyridin-3-yl)-5-(trifluoromethyl)-1H-pyrazol-4-yl)isoxazole] | – | – | 1 to 10 | 0.1 to 1 | – | 1 to 10 |
| Fc1cccc(-n2ncc(-c3onc(-c4c(F)cccc4Cl)c3-c3nnco3)c2C(F)(F)F)c1 [Example 7] | – | – | < 0.01 | < 0.01 | – | 0.01 to 0.1 |
| Cc1nnc(-c2c(-c3c(F)cccc3Cl)noc2-c2cnn(-c3ccncc3)c2C(F)(F)F)s1 [Example B-22, 3-(2-chloro-6-fluorophenyl)-4-(5-methyl-1,3,4-thiadiazol-2-yl)-5-(1-(pyridin-4-yl)-5-(trifluoromethyl)-1H-pyrazol-4-yl)isoxazole] | – | – | 0.1 to 1 | 0.01 to 0.1 | – | 0.1 to 1 |
| Fc1cccc(Cl)c1-c1noc(-c2cnn(-c3ccccc3Cl)c2C(F)(F)F)c1-c1nccs1 [Example B-29, 3-(2-chloro-6-fluorophenyl)-5-(1-(2-chlorophenyl)-5-(trifluoromethyl)-1H-pyrazol-4-yl)-4-(thiazol-2-yl)isoxazole] | – | – | 1 to 10 | 0.1 to 1 | – | 1 to 10 |
| Cc1nnc(-c2c(-c3c(F)cccc3Cl)noc2-c2cnn(-c3ccccn3)c2C(F)(F)F)o1 [Example B-26, 2-(3-(2-chloro-6-fluorophenyl)-5-(1-(pyridin-2-yl)-5-(trifluoromethyl)-1H-pyrazol-4-yl)isoxazol-4-yl)-5-methyl-1,3,4-oxadiazole] | – | – | 0.01 to 0.1 | 0.01 to 0.1 | – | 0.1 to 1 |

Continued, in another order:

| IC50 (IL-17FF; [3]) [µM] | IC50 (IFN-γ; [4]) [µM] | IC50 (IL-17FF; [6]) [µM] | IC50 (IFN-γ; [7]) [µM] | SMILES | IC50 [1, 2] [µM] | IC50 [1, 5] [µM] |
| --- | --- | --- | --- | --- | --- | --- |
| 0.01 to 0.1 | 0.1 to 1 | – | – | COC(=O)c1c(-c2c(F)cccc2Cl)noc1-c1cnn(-c2ccccc2F)c1 [Example I-89, Methyl 3-(2-chloro-6-fluorophenyl)-5-[1-(2-fluorophenyl)-1H-pyrazol-4-yl]isoxazole-4-carboxylate] | 0.1 to 1 | – |
| 0.01 to 0.1 | 0.1 to 1 | – | – | CC(=O)Nc1cccc(-n2ncc(-c3onc(-c4c(F)cccc4Cl)c3C(=O)OC(C)C)c2C(F)(F)F)c1 [IB-78, isopropyl 5-(1-(3-acetamidophenyl)-5-(trifluoromethyl)-1H-pyrazol-4-yl)-3-(2-chloro-6-fluorophenyl)isoxazole-4-carboxylate] | 0.1 to 1 | – |
| 0.1 to 1 | 0.1 to 1 | – | – | CN1CCN(C(=O)c2c(-c3c(F)cccc3Cl)noc2-c2cnn(-c3ccccc3F)c2C(F)(F)F)CC1 [Example I-17, (3-(2-chloro-6-fluorophenyl)-5-(1-(2-fluorophenyl)-5-(trifluoromethyl)-1H-pyrazol-4-yl)isoxazol-4-yl)(4-methylpiperazin-1-yl)methanone] | 1 to 10 | – |
| 1 to 10 | 1 to 10 | – | – | CON(C)C(=O)c1c(-c2c(F)cccc2Cl)noc1-c1cnn(-c2ccccc2Cl)c1C(F)(F)F [IB-51, 3-(2-chloro-6-fluorophenyl)-5-(1-(2-chlorophenyl)-5-(trifluoromethyl)-1H-pyrazol-4-yl)-N-methoxy-N-methylisoxazole-4-carboxamide] | 1 to 10 | – |
| 1 to 10 | 1 to 10 | – | – | CON(C)C(=O)c1c(-c2ccccc2F)noc1-c1cnn(-c2cccc(F)c2)c1C(F)(F)F [Example I-94, 3-(2-fluorophenyl)-5-(1-(3-fluorophenyl)-5-(trifluoromethyl)-1H-pyrazol-4-yl)-N-methoxy-N-methylisoxazole-4-carboxamide] | 1 to 10 | – |
| 1 to 10 | 1 to 10 | – | – | CNC(=O)c1c(-c2c(F)cccc2Cl)noc1-c1cnn(-c2cccnc2)c1C(F)(F)F [IB-55, 3-(2-chloro-6-fluorophenyl)-N-methyl-5-(1-(pyridin-3-yl)-5-(trifluoromethyl)-1H-pyrazol-4-yl)isoxazole-4-carboxamide] | 1 to 10 | – |
| 0.01 to 0.1 | 0.01 to 0.1 | – | – | CCOC(=O)c1c(-c2ccccc2F)noc1-c1cnn(-c2cccc(Cl)c2)c1C(F)(F)F [IB-47, ethyl 5-(1-(3-chlorophenyl)-5-(trifluoromethyl)-1H-pyrazol-4-yl)-3-(2-fluorophenyl)isoxazole-4-carboxylate] | 0.01 to 0.1 | – |
| < 0.01 | < 0.01 | – | – | COC(=O)c1c(-c2ccccc2Cl)noc1-c1cnn(-c2cccc(Cl)c2)c1C(F)(F)F [IB-71, methyl 3-(2-chlorophenyl)-5-(1-(3-chlorophenyl)-5-(trifluoromethyl)-1H-pyrazol-4-yl)isoxazole-4-carboxylate] | < 0.01 | – |
| 1 to 10 | 1 to 10 | – | – | Fc1ccc(-n2ncc(-c3onc(-c4c(F)cccc4Cl)c3Br)c2C(F)(F)F)c(F)c1 [IB-24, 4-bromo-3-(2-chloro-6-fluorophenyl)-5-(1-(2,4-difluorophenyl)-5-(trifluoromethyl)-1H-pyrazol-4-yl)isoxazole] | 1 to 10 | – |
| 0.1 to 1 | 1 to 10 | – | – | CCOC(=O)c1c(-c2c(F)cccc2Cl)noc1-c1cnn(-c2cccc(S(N)(=O)=O)c2)c1C(F)(F)F [IB-43, ethyl 3-(2-chloro-6-fluorophenyl)-5-(1-(3-sulfamoylphenyl)-5-(trifluoromethyl)-1H-pyrazol-4-yl)-isoxazole-4-carboxylate] | 1 to 10 | – |
| 1 to 10 | 1 to 10 | – | – | NC(=O)c1c(-c2c(F)cccc2Cl)noc1-c1cnn(-c2cccc(Cl)c2)c1C(F)(F)F [Example I-121, 3-(2-chloro-6-fluorophenyl)-5-(1-(3-chlorophenyl)-5-(trifluoromethyl)-1H-pyrazol-4-yl)isoxazole-4-carboxamide] | 1 to 10 | – |
| 0.01 to 0.1 | 0.1 to 1 | – | – | CON(C)C(=O)c1c(-c2ccccc2Cl)noc1-c1cnn(-c2cccc(Cl)c2)c1C(F)(F)F [IB-64, 3-(2-chlorophenyl)-5-(1-(3-chlorophenyl)-5-(trifluoromethyl)-1H-pyrazol-4-yl)-N-methoxy-N-methylisoxazole-4-carboxamide] | 0.1 to 1 | – |
| 0.1 to 1 | 0.1 to 1 | – | – | N#Cc1c(-c2c(F)cccc2Cl)noc1-c1cnn(-c2cccc(F)c2)c1C(F)(F)F [Example I-120, 3-(2-chloro-6-fluorophenyl)-5-(1-(3-fluorophenyl)-5-(trifluoromethyl)-1H-pyrazol-4-yl)isoxazole-4-carbonitrile] | 0.1 to 1 | – |
| 1 to 10 | 1 to 10 | – | – | O=C(O)c1c(-c2ccccc2Cl)noc1-c1cnn(-c2cccc(Cl)c2)c1C(F)(F)F [IB-42, 3-(2-chlorophenyl)-5-(1-(3-chlorophenyl)-5-(trifluoromethyl)-1H-pyrazol-4-yl)-isoxazole-4-carboxylic acid] | 1 to 10 | – |
| < 0.01 | < 0.01 | – | – | COC(=O)c1c(-c2ccccc2Cl)noc1-c1cnn(-c2cccc(F)c2)c1C(F)(F)F [Example I-95, methyl 3-(2-chlorophenyl)-5-(1-(3-fluorophenyl)-5-(trifluoromethyl)-1H-pyrazol-4-yl)isoxazole-4-carboxylate] | < 0.01 | – |
| 0.1 to 1 | 1 to 10 | – | – | CCOC(=O)c1c(-c2ccncc2F)noc1-c1cnn(-c2cccc(F)c2)c1C(F)(F)F [IB-14, ethyl 5-(1-(3-fluorophenyl)-5-(trifluoromethyl)-1H-pyrazol-4-yl)-3-(3-fluoropyridin-4-yl)isoxazole-4-carboxylate] | 1 to 10 | – |
| 0.1 to 1 | 0.1 to 1 | – | – | CCOC(=O)c1c(-c2c(F)cccc2Cl)noc1-c1cnn(CCN2CCOCC2)c1C(F)(F)F [IB-97, ethyl 3-(2-chloro-6-fluorophenyl)-5-(1-(2-morpholinoethyl)-5-(trifluoromethyl)-1H-pyrazol-4-yl)isoxazole-4-carboxylate] | 1 to 10 | – |
